This is an account of results in ChEMBL document CHEMBL1143904, “Beta-lactam congeners of orlistat as inhibitors of fatty acid synthase” (Bioorg Med Chem Lett, 2008).

Activity calls are given as the source filed them. No cut-off for these calls is given here.

A short description of the experiment: Inhibition of recombinant fatty acid synthase thioesterase domain by fluorogenic assay.
A word on the IC50: it is the midpoint of a concentration-inhibition curve. For the molecule `CCCCCC[C@@H]1C(=O)N(OCc2ccccc2)[C@H]1C[C@@H](O)CCCCC`, the half-inhibitory concentration (IC50) came out at 50.5 µM. Consider `CCCCCCCCCCC[C@@H](C[C@@H]1NC(=O)[C@H]1CCCCCC)OC(=O)CNC=O`, for which the outcome was inactive. For `CCCCCCCCCCC[C@H](O)C[C@H]1[C@H](CCCCCC)C(=O)N1OCc1ccccc1`, the concentration for half-maximal inhibition (IC50) was 86.8 µM. The same measure, in the same setting: with `CCCCCCCCCCC[C@@H](C[C@H]1[C@H](CCCCCC)C(=O)N1OCc1ccccc1)OC(=O)CNC=O` the figure was 68.9 µM; with `CCCCCCCCCCC[C@H](C[C@@H]1[C@@H](CCCCCC)C(=O)N1OCc1ccccc1)O[Si](C)(C)C(C)(C)C`, 97.4 µM. In the case of `CCCCCCCCCCC[C@H](C[C@H]1NC(=O)[C@@H]1CCCCCC)OC(=O)CNC=O`, the result was inactive. As for `CCCCCCCCCCC[C@H](C[C@@H]1[C@@H](CCCCCC)C(=O)N1OCc1ccccc1)OC(=O)CNC=O`, the IC50 came to 39.2 µM.

On to `CCCCCCCCCCC[C@@H](C[C@H]1[C@H](CCCCCC)C(=O)N1OCc1ccccc1)O[Si](C)(C)C(C)(C)C`, for which the IC50 is 8.6 µM. On the same count and under the same terms, next, `CCCCCC[C@@H]1C(=O)N[C@H]1C[C@@H](O)CCCCC`: 67.6 µM; `CCCCCCCCCCC[C@@H](O)C[C@@H]1[C@@H](CCCCCC)C(=O)N1OCc1ccccc1`: 61.2 µM. Same read-out and setting: next, `CCCCCC[C@@H]1C(=O)N(OCc2ccccc2)[C@H]1C[C@H](CCCCC)OC(=O)[C@@H](NC=O)C(C)C`: 58.2 µM.
